In patent US20100075919A1, “COMPOSITIONS COMPRISING ALKYLDIMONIUM HYDROXYPROPYL ALKYLGLUCOSIDES” (priority 2008, published 2010):

Key:
A. Niger = assay: Preservative efficacy response study against A. Niger in borate-buffered solution; format: cell-based; conditions: S-1218 in the solutions with or without PHMB
Excerpt: A “preservative-effective amount” is defined as a sufficient amount of alkyldimonium hydroxypropyl alkylglucoside of general formula I or general formula II in the formulation to reduce the cell population by two log orders after 7 days of the five following microorganisms, Staphylococcus aureus, Pseudomonas aeruginosa, Eschrechia coli, Candida albicans and Aspergillus niger, or that which will prevent the growth of fungal bioburden by ±0.5 log.
Data obtained from a preservative efficacy response study of S-1218 with or without the stated concentrations of PHMB in borate-buffered solution containing 0.85 wt. % sodium borate, 0.06 wt. % boric acid and 0.26 wt. % sodium chloride is provided in Tables 3A and 3B. The study also included a response against S. Aureus, P. Aeruginosa, E. Coli, and C. Albicans.
Data obtained from a preservative efficacy response study of select alkyldimonium hydroxypropyl alkylglucosides of general formula I or general formula II in borate-buffered solution containing 0.85 wt. % sodium borate, 0.06 wt. % boric acid and 0.26 wt. % sodium chloride is provided in Table 4. Example 9 includes 0.2 wt. % S-1218; Example 10 includes 0.2 wt. % S-1010P; Example 11 includes 0.2 wt. % L-1210P; and Example 12 includes 0.2 wt. % S-1010. The study also included a response against S. Aureus, P. Aeruginosa, E. Coli, and C. Albicans.

[1] = system: three bacterium and two fungal strains; assay: Testing of commercially available alkyldimonium hydroxypropyl alkylglucosides for biocidal efficacy in aqueous buffered borate solution; format: cell-based

Substance: stearyldimonium hydroxypropyl laurylglucosides chloride [Example S-1218]
- biocidal control of A. Niger (in words) (A. Niger): significant biocidal control

Substance: stearyldimonium hydropropyl decylglucoside
- biocidal efficacy (in words) [1]: relatively high increase in biocidal efficacy

Substance: stearyl dimonium hydropropyl laurylglucoside
- biocidal efficacy (in words) [1]: relatively high increase in biocidal efficacy
